This note sets out measurements from ChEMBL document CHEMBL1201862, “PubChem BioAssay data set” (2004).

Calls of active or inactive are those of the source.

Experiment [1] is described as follows: A High Throughput Confirmatory Assay used to Identify Novel Compounds that Inhibit Mycobacterium Tuberculosis in the absence of Glycerol. Format: functional.
A short description of experiment [2]: fluconazole-exposed Candida albicans growth modulators – fluorescence, retest, confirmation (AID 2467). The experiment is classed as functional, cell-based.
Experiment [3] is described as follows: NIH-3T3 fibroblast cytotoxicity, dose response, cytotoxicity control, cell-based, fluorescence, Alamar Blue, secondary assay (AID 2327).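 Also: NIH-3T3 mouse fibroblasts cultured with fluconazole at 8 µg/mL.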 Format: functional.
In experiment [4] the target is T1, Rac GTPase-activating protein 1 (Homo sapiens, UniProt Q9H0H5).
T1 sequence (Q9H0H5 whole entry): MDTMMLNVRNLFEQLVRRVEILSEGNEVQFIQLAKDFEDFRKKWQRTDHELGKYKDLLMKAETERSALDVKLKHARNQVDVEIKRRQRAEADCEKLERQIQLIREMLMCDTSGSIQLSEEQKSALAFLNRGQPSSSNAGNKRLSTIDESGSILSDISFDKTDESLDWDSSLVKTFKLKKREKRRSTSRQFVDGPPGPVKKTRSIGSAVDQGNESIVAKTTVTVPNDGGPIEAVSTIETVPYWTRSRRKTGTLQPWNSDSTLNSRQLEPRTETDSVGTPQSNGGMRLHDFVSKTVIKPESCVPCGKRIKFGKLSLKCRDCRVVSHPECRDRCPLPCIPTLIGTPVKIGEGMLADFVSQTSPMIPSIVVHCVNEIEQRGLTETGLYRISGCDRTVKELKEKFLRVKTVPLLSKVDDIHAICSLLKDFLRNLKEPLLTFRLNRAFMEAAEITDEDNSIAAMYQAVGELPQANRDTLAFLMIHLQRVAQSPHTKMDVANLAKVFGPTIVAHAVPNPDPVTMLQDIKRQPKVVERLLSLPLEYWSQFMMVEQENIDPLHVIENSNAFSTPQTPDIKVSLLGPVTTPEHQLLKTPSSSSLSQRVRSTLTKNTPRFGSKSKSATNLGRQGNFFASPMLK
Nature of the experiment: blockers of MgcRacGAP-driven Rac1 GTP hydrolysis – biochemical, ADP Hunter fluorescence, primary and confirmatory, confirmation (AID 624330). The experiment is classed as functional.

A short description of experiment [5]: A cytotoxicity screen of small molecule inhibitors of the PhoP region in Salmonella typhi identified in the primary screen. [Related pubchem assays: 1850, 1864, 1985 ]. Format: functional.
A short description of experiment [6]: microbe, parasite or virus in culture. Format: functional. The note with it: Mycobacterium tuberculosis.
For experiment [7], the target named is T2, Lysosomal acid glucosylceramidase (Homo sapiens, UniProt P04062).
T2 sequence (P04062 whole entry): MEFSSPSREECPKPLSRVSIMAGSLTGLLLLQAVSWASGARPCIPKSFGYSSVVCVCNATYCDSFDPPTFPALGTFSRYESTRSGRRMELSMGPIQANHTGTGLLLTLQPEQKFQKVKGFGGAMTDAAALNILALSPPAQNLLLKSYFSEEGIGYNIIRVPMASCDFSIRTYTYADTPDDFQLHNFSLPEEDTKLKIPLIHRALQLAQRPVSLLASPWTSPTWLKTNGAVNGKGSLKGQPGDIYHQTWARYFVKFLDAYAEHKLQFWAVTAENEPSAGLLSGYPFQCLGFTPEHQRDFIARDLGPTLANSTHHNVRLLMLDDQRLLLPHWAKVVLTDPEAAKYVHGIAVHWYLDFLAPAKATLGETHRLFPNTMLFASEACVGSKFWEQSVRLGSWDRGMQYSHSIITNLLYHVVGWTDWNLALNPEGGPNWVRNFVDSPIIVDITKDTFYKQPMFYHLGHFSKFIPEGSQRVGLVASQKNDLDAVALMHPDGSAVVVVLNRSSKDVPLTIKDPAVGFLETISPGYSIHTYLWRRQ
Nature of the experiment: Dose response cell-based high throughput screening assay to identify enhancers of beta-glucosidase activity. [Related pubchem assays: 784 ]. Format: functional.

For the next experiment, the target named is T3, Protein RecA (Mycobacterium tuberculosis, UniProt P9WHJ3).
T3 sequence (P9WHJ3 whole entry): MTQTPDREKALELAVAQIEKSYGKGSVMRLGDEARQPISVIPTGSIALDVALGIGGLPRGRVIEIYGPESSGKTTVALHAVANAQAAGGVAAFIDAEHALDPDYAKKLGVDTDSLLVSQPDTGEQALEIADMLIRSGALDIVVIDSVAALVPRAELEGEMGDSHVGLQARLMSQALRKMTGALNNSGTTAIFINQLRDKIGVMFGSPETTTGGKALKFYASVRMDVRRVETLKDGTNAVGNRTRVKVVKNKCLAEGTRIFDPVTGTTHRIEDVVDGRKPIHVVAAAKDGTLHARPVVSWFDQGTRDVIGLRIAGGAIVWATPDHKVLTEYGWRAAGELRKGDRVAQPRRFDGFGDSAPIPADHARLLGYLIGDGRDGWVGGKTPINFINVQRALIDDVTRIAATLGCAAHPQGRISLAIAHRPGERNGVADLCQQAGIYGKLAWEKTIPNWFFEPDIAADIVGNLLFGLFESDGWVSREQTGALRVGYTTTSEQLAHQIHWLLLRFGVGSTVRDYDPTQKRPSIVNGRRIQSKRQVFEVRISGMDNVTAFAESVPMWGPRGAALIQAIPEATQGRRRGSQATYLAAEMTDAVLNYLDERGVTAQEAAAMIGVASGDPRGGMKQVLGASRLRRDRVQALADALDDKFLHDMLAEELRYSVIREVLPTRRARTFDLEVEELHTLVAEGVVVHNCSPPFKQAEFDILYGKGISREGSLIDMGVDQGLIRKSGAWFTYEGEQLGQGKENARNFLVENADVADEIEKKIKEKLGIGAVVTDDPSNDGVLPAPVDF
Kind of experiment: Fluorescence Cell-Free Homogeneous Dose Retest to Identify Inhibitors of RecA-Intein Splicing Activity. [Related pubchem assays (depositor defined):AID2097, AID2223, AID489010, AID492950]. Format: functional.

For experiment [8], the target named is T4, Replicative DNA helicase DnaB (Mycobacterium tuberculosis, UniProt P9WMR3).
T4 sequence (P9WMR3 whole entry): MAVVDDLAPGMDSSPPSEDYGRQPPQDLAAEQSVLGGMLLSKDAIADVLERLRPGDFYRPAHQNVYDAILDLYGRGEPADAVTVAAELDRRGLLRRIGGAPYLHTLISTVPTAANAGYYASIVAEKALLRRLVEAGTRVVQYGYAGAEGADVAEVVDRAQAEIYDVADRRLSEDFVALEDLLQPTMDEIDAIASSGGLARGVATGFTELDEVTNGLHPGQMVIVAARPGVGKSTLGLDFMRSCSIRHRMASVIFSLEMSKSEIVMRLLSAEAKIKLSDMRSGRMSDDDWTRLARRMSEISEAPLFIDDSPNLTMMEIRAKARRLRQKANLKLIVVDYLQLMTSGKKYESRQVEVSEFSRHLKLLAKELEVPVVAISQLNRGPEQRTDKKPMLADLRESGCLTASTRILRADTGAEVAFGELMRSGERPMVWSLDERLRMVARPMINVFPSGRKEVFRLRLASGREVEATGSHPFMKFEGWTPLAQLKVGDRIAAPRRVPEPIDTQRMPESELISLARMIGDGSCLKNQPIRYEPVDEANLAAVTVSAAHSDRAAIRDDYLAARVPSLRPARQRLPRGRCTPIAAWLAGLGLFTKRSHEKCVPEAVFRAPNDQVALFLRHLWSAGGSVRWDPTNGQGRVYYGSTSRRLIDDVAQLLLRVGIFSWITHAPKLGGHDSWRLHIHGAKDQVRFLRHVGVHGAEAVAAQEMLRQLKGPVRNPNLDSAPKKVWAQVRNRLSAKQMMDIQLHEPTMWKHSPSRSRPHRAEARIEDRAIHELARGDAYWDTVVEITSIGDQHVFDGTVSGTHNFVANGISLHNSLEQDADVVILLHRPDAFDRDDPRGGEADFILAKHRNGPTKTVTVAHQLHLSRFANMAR
Nature of the experiment: DnaB intein splicing inhibitors, dose response, biochemical, cell-free fluorescence (AID 449749). Format: functional.

With `O=C1NN(c2ccc(Br)cc2)C(=O)/C1=C\c1ccc(O)cc1O`, the IC50 was > 100 µM (active) in experiment [1] and 159 µM (active) in experiment [4]. Moreover, the EC50 is > 38 µM (not active) in experiment [2] and > 150 µM (inconclusive) in experiment [3].

As for `CC1CCCN(C(=O)Cn2c(=O)oc3cc(S(=O)(=O)N4CCCCC4)ccc32)C1` (centres undefined), in experiment [5], the EC50 was > 50 µM (active).

With `COC(=O)c1ccc(CSc2nc(C(F)(F)F)c3c(c2C#N)CCC3)o1`, the IC50 in experiment [1] is > 100 µM (active). In experiment [6], the CC50 is > 40 µM (active).

Turning to `Cc1cc(C)cc(N2CCN(C(=O)N3CCOCC3)CC2)c1`, the EC50 in [7] was > 50 µM (not active).

Take `Nc1cc([N+](=O)[O-])cc2oc(-c3ccccc3)cc12`: the IC50 in experiment [1] was > 100 µM (active).

Consider `Cc1ccc(-c2ccc(C3C(C#N)=C(N)Oc4[nH]nc(C)c43)o2)cc1` (centres undefined), for which the IC50 in experiment [1] was > 100 µM (active). The EC50 at Protein RecA was 4.25 µM (active). For the same compound, the AC50 in experiment [8] was > 380 µM (inactive).

For `O=C(CCS(=O)(=O)c1ccc(Br)cc1)N1CCN(Cc2ccccc2)CC1`, in [7], the 50% effective concentration (EC50) was > 50 µM (not active).

`CCOc1ccc(OCCSc2nc3ccccc3[nH]2)cc1`: in experiment [5], the EC50 was > 50 µM (active).
